The values that follow come from patent US12358896B2, “LRRK2 inhibitors and methods of making and using thereof” (DENALI THERAPEUTICS INC., priority 2019, dated 2025).

A short description of data set [1]: Metabolic stability in human liver microsomes (Biological Example 2). It is filed as in vitro ADME. The settings on record: hepatic clearance (CLhep) scaled from human liver microsomes, 1 μM, well-stirred model. On the procedure:
Metabolic stability of select compounds was evaluated in human liver microsomes (from Corning or XenoTech, LLC) using a 96-well plate assay format. Compounds were incubated at 37° C. at 1 μM final concentration in the microsomal matrix (0.5 mg/mL total protein) in the presence or absence of NADPH cofactor. An NADPH regenerating system, comprised of NADP, MgCl2, isocitric acid, and isocitrate dehydrogenase, was used in the assay. Enzymatic reactions were conducted for 0, 5, 10, 20, 30, or 60 min before termination by addition of acetonitrile containing tolbutamide and labetalol internal standards (100 ng/mL). After shaking for 10 min, plates were subjected to centrifugation (4000 rpm at 4° C.) for 20 min and supernatants mixed 1:3 with HPLC grade water. Samples were analyzed by LC-MS/MS using appropriate MRM transitions for each analyte and internal standard (IS). Analyte/IS peak area ratios were used to determine percent compound remaining at each time point. Intrinsic clearance (Clint; expressed as mL·min^−1·mg^−1) was calculated from the first order elimination constant (k, min^−1) of test article decay and the volume of the incubation. These values were scaled to intrinsic organ clearance (Clint) using human specific scaling factors (48.8 mg microsomal protein per g liver; 25.7 g liver per kg body weight). Organ Clint was subsequently converted to hepatic clearance, HLM, (CLhep, mL·min-1·kg-1) using the well-stirred model of hepatic elimination, where Qh is human hepatic blood flow (20.7 mL·min-1·kg-1).
CLhep is the projected human clearance in the liver based on the above in vitro assay. A lower value is indicative of less compound being removed by the liver.

In data set [2] the target is T1, FLAG-tagged human LRRK2 with G2019S mutation (Homo sapiens, UniProt Q5S007, G2019S).
T1 construct: expressed in transfected cells; host or cells: HEK293 / 293T cells, transient transfection with pCMV-FLAG-G2019S
The data set can be described thus: Inhibition of pSer935 in HEK293 cells with expressed G2019S LRRK2 (Biological Example 4). The settings on record: transfected 293T cells, 90 minutes compound treatment, MSD readout; read-out: HEK293T LRRK2 G2019S pS935. The class given is cell-based. On the procedure: In this assay, inhibition of phosphorylation of LRRK2 at residue serine 935 (pS935) by test compound was determined in HEK293 cells.
HEK293 cells were first transiently transfected with a plasmid harboring FLAG-tagged human LRRK2 cDNA with G2019S mutation (p.G2019S) under the control of CMV promoter for robust overexpression. The levels of phosphorylated Ser935 in G2019S expressing cells with or without compound treatment were measured by MSD using an anti-FLAG capture antibody and a phosho-specific anti-LRRK2 pS935 monoclonal detection antibody. The IC50 was determined by fitting a 10-point dose response data in duplicate with four parameter non-linear regression curve.
(Day 1) 293T cell seeding: 293T cells were seeded (1.4×10^6/well) into each well of a 6-well plate. After two days in culture, the cell number can grow into 5×10^6/well, so N+1 wells were seeded (enough for N 96 well assay plates).
(Day 2) 293T cell transfection: 5 μL of pCMV-FLAG-G2019S or pCMV-FLAG-WT LRRK2 (0.5 μg/μL) was added into 145 μL of DMEM medium, and mixed thoroughly by pipette up and down several times. 15 μL of SuperFect Transfection Reagent was added into samples, mixed thoroughly by pipetting up and down several times, and allowed to equilibrate at room temperature for 5-10 minutes. 0.5 mL of pre-warmed cell culture medium was added into samples, and mixed thoroughly by pipetting up and down several times. 650 μL of the mixture was added dropwise into each well of the 6 well plate, the plate was swirled to mix thoroughly, and incubated in a 37° C. incubator with a humidified atmosphere of 5% CO2 for 20-24 hours.
(Day 3) 293T cells seed into 96 well plates: Cells were harvested and resuspended in cell culture medium at 0.96×10^6 cells/mL density. 50 μL/well cells were plated onto 96-well cell culture plate (48,000 cells/well), and the plates were incubated in a 37° C. incubator with a humidified atmosphere of 5% CO2 for 20-24 hours.
(Day 4) Inhibitor Treatment and Cell Lysis: The compound destination plates were thawed at room temperature and centrifuged at 2000 rpm. 55 μL cell culture medium was added into compound destination plate, and the plate was warmed at 37° C.
50 μL of cell culture medium containing compounds was transferred into cell culture plate. Plates were incubated in a 37° C. incubator with a humidified atmosphere of 5% CO2 for 90 minutes, after which all of compound-containing medium was completely aspirated manually with 300 μL pipette. 100 μL/well of Lysis Buffer was added and the plates sealed, shaken at 4° C. for 30 minutes, and stored at −20° C. until usage.
(Day 5) MSD procedure: 2 μg/25 μL/well of FLAG antibody diluted in PBS was added into the MSD plate, incubated for two hours at room temperature or overnight at 4° C. (in Day 4). 50 μL (3.9 μg/μL) of FLAG antibody plus 2.5 mL PBS, per 96 well plate, or 50 μL (3.9 μg/μL) anti-FLAG antibody plus 5 mL PBS per 384 well plate. The plates were centrifuged at 1000 rpm for 10 seconds and shaken with a plate shaker for 10 seconds.
Anti-FLAG antibody was discarded, and the wells were washed using multidrop, low speed, two times with 300 μL/well of wash buffer for a 96 well plate or three times with 70 μL/well of wash buffer for a 384 well plate. 50 μL/well of block buffer for a 96 well plate, or 25 μL/well of block buffer for a 384 well plate, was added and the plates were incubated for two hours at room temperature. The Block buffer was then discarded and the wells washed two times using multidrop, low speed, with 300 μL/well of wash buffer for a 96 well plate, or three times with 70 μL/well of wash buffer for a 384 well plate.
25 μL of cell lysate was transferred into a 96 well MSD plate, or 12.5 μL of cell lysate into 384 well MSD plate, and the plates were incubated for one hour at room temperature.
Note: The cell lysate should be thawed one hour prior to this step, the plate centrifuged at 1000 rpm for one minute, shaken for 30 seconds, and then unsealed for lysate transfer. […]

T1 sequence (Q5S007 whole entry G2019S): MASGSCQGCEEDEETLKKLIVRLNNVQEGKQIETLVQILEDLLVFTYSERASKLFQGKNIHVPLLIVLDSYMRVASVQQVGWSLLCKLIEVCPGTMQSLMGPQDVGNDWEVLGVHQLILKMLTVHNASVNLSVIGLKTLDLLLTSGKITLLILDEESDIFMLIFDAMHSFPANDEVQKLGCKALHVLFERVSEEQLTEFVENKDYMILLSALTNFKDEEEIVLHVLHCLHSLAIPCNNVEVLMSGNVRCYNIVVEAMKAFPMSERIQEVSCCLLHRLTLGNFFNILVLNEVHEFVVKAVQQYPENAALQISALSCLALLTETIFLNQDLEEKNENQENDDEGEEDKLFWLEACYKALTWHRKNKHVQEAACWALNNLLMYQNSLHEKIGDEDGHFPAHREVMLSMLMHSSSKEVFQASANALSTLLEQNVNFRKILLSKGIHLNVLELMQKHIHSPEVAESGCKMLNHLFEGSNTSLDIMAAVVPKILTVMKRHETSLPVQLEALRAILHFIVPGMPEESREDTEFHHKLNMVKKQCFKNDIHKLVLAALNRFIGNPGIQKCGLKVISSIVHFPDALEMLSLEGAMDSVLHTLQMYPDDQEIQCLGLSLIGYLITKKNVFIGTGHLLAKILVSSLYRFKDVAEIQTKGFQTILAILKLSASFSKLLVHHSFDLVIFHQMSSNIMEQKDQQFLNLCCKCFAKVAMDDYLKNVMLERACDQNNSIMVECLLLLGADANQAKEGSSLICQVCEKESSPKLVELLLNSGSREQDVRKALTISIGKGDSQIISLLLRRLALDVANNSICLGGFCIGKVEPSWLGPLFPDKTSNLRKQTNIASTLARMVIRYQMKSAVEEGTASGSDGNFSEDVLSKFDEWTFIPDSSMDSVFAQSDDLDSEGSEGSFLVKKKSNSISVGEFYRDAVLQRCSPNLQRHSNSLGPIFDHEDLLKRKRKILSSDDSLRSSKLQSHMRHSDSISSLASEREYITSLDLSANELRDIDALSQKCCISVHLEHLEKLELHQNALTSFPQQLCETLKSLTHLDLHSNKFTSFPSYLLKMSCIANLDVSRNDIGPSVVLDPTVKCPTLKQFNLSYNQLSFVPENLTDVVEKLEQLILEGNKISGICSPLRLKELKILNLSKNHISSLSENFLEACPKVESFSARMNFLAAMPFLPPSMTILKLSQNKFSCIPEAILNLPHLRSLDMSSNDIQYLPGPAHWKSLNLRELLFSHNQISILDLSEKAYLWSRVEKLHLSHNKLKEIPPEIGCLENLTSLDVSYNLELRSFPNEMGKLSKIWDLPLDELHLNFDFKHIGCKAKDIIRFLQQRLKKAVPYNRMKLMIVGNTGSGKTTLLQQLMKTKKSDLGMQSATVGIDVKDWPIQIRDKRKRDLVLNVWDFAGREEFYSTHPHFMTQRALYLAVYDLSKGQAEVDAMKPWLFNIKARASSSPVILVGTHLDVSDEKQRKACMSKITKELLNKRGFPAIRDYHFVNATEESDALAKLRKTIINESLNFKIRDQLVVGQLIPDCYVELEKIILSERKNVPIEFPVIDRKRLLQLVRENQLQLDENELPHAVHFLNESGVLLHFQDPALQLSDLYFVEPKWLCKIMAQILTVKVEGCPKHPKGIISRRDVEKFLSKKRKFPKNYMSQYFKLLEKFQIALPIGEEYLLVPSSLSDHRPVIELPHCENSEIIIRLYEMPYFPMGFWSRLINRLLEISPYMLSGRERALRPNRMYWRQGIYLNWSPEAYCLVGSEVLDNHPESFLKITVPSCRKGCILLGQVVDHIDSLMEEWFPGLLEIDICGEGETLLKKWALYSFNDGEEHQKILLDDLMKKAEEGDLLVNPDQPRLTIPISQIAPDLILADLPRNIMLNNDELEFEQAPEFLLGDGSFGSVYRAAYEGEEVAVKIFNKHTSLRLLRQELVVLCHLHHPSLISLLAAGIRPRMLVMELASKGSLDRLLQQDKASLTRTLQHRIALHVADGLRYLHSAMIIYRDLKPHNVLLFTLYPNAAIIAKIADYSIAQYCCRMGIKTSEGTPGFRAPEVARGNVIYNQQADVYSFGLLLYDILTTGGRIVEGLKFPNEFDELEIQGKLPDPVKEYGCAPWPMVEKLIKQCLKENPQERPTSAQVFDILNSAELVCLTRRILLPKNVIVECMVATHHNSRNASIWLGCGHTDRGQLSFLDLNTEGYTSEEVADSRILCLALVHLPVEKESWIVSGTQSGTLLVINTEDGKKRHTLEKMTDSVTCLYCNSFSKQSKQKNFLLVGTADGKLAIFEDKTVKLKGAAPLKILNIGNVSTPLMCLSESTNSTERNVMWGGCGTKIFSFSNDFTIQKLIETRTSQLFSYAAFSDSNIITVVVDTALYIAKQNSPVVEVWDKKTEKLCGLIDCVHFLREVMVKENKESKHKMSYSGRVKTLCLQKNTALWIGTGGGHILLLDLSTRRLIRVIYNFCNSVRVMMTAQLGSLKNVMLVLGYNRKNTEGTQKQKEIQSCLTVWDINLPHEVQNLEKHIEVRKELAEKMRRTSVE

As to `CCNc1nc(Nc2cn([C@H]3C[C@H]3C(N)=O)nc2C2CC2)ncc1C(F)(F)F` (single isomer, unassigned) [Example 7, (1,2-cis)-2-(3-cyclopropyl-4-((4-(ethylamino)-5-(trifluoromethyl)pyrimidin-2-yl)amino)-1H-pyrazol-1-yl)cyclopropanecarboxamide], the “HLM Avg” value in data set [1] is reported as 3.6 mL/min/kg. Also, the IC50 in data set [2] was 1.83 nM.

Turning to `CCNc1nc(Nc2cc([C@H]3C[C@H]3C(N)=O)nn2C2CC2)ncc1C(F)(F)F` [Comparative Example A, reference compound], in data set [1], the “HLM Avg” value was determined as 2.6 mL/min/kg. Moreover, the IC50 in data set [2] amounted to 11.8 nM.
